Measured values reported in PubChem BioAssay AID720562 (Broad Institute, 2013).
Activity calls are given as the source filed them.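 How the source made its calls: active means fitted curve rises past 40% activation at or below the highest valid tested dose; inconclusive means flat fit between 30% and 70%, or poor curve fit; inactive means the rest, including signal falling instead of rising.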

Biological target: Luciferin 4-monooxygenase (Photinus pyralis) (UniProt P08659)
Test: firefly luciferase activators or modifiers, dose response, counter-screen for NLG project, biochemical, CellTiter-Glo luminescence, dry powder samples (AID 720562)
Settings: purified luciferase, 1 h

Chain of Luciferin 4-monooxygenase (Photinus pyralis) (P08659 whole entry, looked up): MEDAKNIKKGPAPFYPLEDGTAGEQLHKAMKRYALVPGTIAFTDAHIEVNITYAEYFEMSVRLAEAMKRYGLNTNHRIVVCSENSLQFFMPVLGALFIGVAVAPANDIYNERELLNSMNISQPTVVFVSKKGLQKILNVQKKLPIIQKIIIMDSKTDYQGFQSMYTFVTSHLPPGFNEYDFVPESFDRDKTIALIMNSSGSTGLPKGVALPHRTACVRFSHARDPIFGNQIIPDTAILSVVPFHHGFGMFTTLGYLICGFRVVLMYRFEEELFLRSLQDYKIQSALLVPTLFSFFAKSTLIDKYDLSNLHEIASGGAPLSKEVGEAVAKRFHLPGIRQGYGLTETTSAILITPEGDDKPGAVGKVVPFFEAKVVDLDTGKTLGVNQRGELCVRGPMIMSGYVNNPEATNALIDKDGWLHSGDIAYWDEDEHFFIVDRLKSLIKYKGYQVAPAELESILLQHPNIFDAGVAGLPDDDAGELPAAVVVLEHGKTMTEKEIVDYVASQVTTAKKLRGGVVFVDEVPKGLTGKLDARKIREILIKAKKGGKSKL

| SMILES | AC40 | luminescence change, positive = activation (at 30 µM (top of the series)) | further results |
| --- | --- | --- | --- |
| CC(=O)N1CCC(=O)c2cc3ccccc3cc21 | 4.65 µM |  |  |
| COc1ccc2c(COC(=O)c3cccc(S(=O)(=O)NCC(C)C)c3)cc(=O)oc2c1 | 1.49 µM |  |  |
| CCOC(=O)c1ccc(Oc2cc(C)nc(SC)n2)cc1 |  | 16.2% (inactive) |  |
| COC(=O)c1cn(C(=O)c2ccc(OC)cc2)c2ccccc12 | 12.5 µM |  |  |
| CC(=O)c1ccc(Oc2cc(C)nc(-n3nc(C)cc3C)n2)cc1 |  | -10.8% (inactive) |  |
| COc1cc(-c2nnc(SCC3(c4ccc(Br)cc4)OCCO3)o2)cc(OC)c1OC | > 30 µM (inactive) |  |  |
| CCOc1ccc(S(=O)(=O)NCc2ccccn2)cc1NC(=O)c1ccccc1F |  |  | luminescence change, positive = activation (at 7.5 µM (top of the series)): -35.8% (inactive) |
| Cc1cccc(C)c1OCCNC(=O)C(=O)NCc1ccco1 |  | -39.9% (inactive) |  |
| Cc1ccc(CCC(=O)Nc2ncc(Cc3cc(Cl)ccc3Cl)s2)o1 |  | -24.3% (inactive) |  |
| O=C(Cc1ccccc1)c1nnc(-c2ccccc2)o1 | > 30 µM (inactive) |  |  |
| CCCOC(=O)c1[nH]c2c(c1C)C(=O)CC(c1cccs1)C2 (configuration not stated) | 10 µM |  |  |
| COc1ccccc1-c1nnc(SCc2ccccc2)o1 |  | -10.8% (inactive) |  |
| Brc1ccc(CSc2nnc(-c3ccccc3)o2)cc1 |  | 21.6% (inactive) |  |
| O=C1CCN(Cc2ccccc2)c2cc3ccccc3cc21 |  |  | luminescence change, positive = activation (at 7.5 µM (top of the series)): 10.8% (inactive) |
| CCOC(=O)COc1cccc2c(=O)n(CC(=O)NCc3ccccc3)ccc12 |  | -4.73% (inactive) |  |
| CCC1=Nc2cc(C(=O)NCCCOC)ccc2Sc2ccccc21 |  | -11.5% (inactive) |  |
| Cc1cc(C)nc(/N=C(\N)Nc2ccc(OCc3ccccc3)cc2)n1 |  | 36.9% (inactive) |  |
| Cc1ccc(/C=N/NC(=O)C2COc3ccccc3O2)s1 (configuration not stated) | > 30 µM (inactive) |  |  |
| CCN(CC)CCCNc1nc2cc(OC)c(OC)cc2c2nc(-c3ccccc3)nn12 |  | -10.1% (inactive) |  |
| CC(=O)N[C@H]1[C@@H](O[C@@H]2OC(C[C@@H](O)C3O[C@@H](n4ccc(=O)[nH]c4=O)[C@H](O)[C@@H]3O)[C@H](O)[C@H](O)[C@H]2NC(=O)/C=C/CCCCCCCCCCC(C)C)O[C@H](CO)[C@@H](O)[C@@H]1O (some centres not stated) | 13.1 µM |  |  |
| Cc1cc(=O)[nH]c(N/N=C/c2cc(C)n(CC(F)(F)F)c2C)n1 |  | 36% (inactive) |  |
| COc1ccccc1CSc1nnc(-c2ccccc2)o1 |  | 19.8% (inactive) |  |
| Cc1[nH][nH]c(=O)c1C(c1ccc(-c2ccc(Cl)c(Cl)c2)o1)c1c(C)[nH][nH]c1=O |  | 7.43% (inactive) |  |
| c1ccc(CSc2nnc(-c3ccccc3)o2)cc1 | 20.9 µM |  |  |

| SMILES | AC40 | luminescence change, positive = activation (at 30 µM (top of the series)) | further results |
| --- | --- | --- | --- |
| Nc1nc(=S)c2ncn([C@@H]3O[C@H](CO)[C@@H](O)[C@H]3O)c2[nH]1 |  | 97.3% (inactive) |  |
| CCn1c2ccccc2c2cc(NC(=O)c3cc(OC)c(OC)c(OC)c3)ccc21 |  |  | luminescence change, positive = activation (at 7.5 µM (top of the series)): -35.8% (inactive) |
| COc1cccc(N2CCN(C(=O)c3ccc(CS(=O)c4ccc(C)cc4)o3)CC2)c1 (configuration not stated) |  | 8.11% (inactive) |  |
| CCCNS(=O)(=O)c1cccc(C(=O)OCc2cc(=O)oc3cc(OC)ccc23)c1 | 6.81 µM |  |  |
| COc1ccc(CSc2nnc(-c3ccccc3)o2)cc1 | > 30 µM (inactive) |  |  |
| CCOc1ccc(NC(=O)c2cc(OC)nc3ccccc23)cc1 |  | -0.676% (inactive) |  |
| COc1ccccc1OCC(=O)NNC(=O)c1ccoc1C |  | -17.6% (inactive) |  |
| CC(=O)c1cccc(NC(=O)CSc2ncc(C(=O)Nc3ccccc3)c(=O)n2C)c1 |  | -7.43% (inactive) |  |
| CCN(CC)CCC(=O)Nc1cccc2c1C(=O)c1ccccc1C2=O | 14.7 µM |  |  |
| COc1ccc(NC(=O)C(=O)c2cn(CC(=O)N3CCCC3)c3ccccc23)cc1 |  | -20.3% (inactive) |  |
| C/C(=N\NC(=O)c1c([N+](=O)[O-])c(C)nn1C)c1ccc(NC(=O)C2CCCC2)cc1 |  | -2.7% (inactive) |  |
| COc1ccc(-c2nnc(SCc3ccccc3)o2)cc1 | > 30 µM (inactive) |  |  |
| O=C1CCNc2cc3ccccc3cc21 | 28.2 µM |  |  |
| O=C(N/N=C/c1ccc(Cl)cc1)c1sccc1OCc1ccc(F)cc1 | > 30 µM (inactive) |  |  |
| CCN(CC)CCOc1ccc2c(c1)C(=NNC(=O)c1ccccn1)c1cc(OCCN(CC)CC)ccc1-2 | > 30 µM (inactive) |  |  |
| Cc1cnc(NC(=O)c2cc(S(=O)(=O)N(C)C)ccc2N2CCCC2)s1 |  | 8.11% (inactive) |  |
| Cc1ccc(C(=O)c2cc([N+](=O)[O-])ccc2N2CCOCC2)cc1C |  | 19.8% (inactive) |  |
| Cc1cc(C)cc(C(=O)N2CC(=O)Nc3ccccc32)c1 |  | -9.46% (inactive) |  |
| CCCCOc1ccccc1C1CC(=O)NC2=C1C(=O)CCC2 (configuration not stated) |  | -27% (inactive) |  |
| Cc1ccc(Oc2ccc(S(=O)(=O)N3CCOCC3)cc2C(N)=O)c(-n2nc3ccccc3n2)c1 |  | -22.3% (inactive) |  |
| COc1cc(C(=O)NCCOc2cc(C)cc(C)c2)cc(OC)c1OC | 24.5 µM |  |  |
| COc1cc(Nc2c3c(nc4ccccc24)CCCC3)cc(OC)c1OC |  | -14.9% (inactive) |  |
| Cc1cc(NC(=O)CSc2nc(-c3ccco3)cc(C(F)(F)F)n2)no1 |  | -25.7% (inactive) |  |
